Source: patent US20250313563A1, “GLYCOGEN SYNTHASE KINASE 3 INHIBITORS AND USES THEREOF” (The Broad Institute, Inc., priority 2022, published 2025)

How the values were obtained:
GSK3α = GSK3α (Homo sapiens (Human), UniProt P49840); assay: pThr231 tau phosphorylation plate-based assay in HEK-huTau cells transfected with GSK3α; type: cell-based; settings: HEK-huTau cells transfected with human GSK3α; 10-point dose response, 2 hours; read-out: GSK3α IC50 (inhibition of pThr231)
Description: (§1) HEK293 or SH-SY5Y cells were obtained from American Type Culture Collection (ATCC, Manassas, VA) and cultured in Dulbecco's modified Eagle's medium (DMEM) supplemented with 10% fetal bovine serum (FBS), 10 units/ml penicillin, and 10 μg/ml streptomycin (all reagents were purchased from Gibco, Waltham, MA). Cell cultures were maintained in a humidified 5% (v/v) CO2/air environment at 37° C. When the cells reached 50-80% confluence, they were transfected with a complex consisting of a 3:1 ratio of FuGENE 6 Transfection Reagent (Promega, Madison, WI) and plasmid DNA. Plasmid DNA was balanced out across reactions using an empty plasmid so that the same amount of DNA was added per well. This transfection complex was prepared following the manufacturers protocol and added directly to the cell media for 24 or 48 hours prior to lysis.
(§2) 293T cells stably expressing human 2N4R Tau were transfected with appropriate cDNA plasmids. 24 hours following transfection cells were treated with compound in a 10-point dose-response (from 1000× stocks of compound) and lysates harvested 2 hours later with cell extraction buffer (Life Technologies Cat #BN0001) or RIPA Buffer with Halt protease/phosphatase inhibitors added.
(§3) For pThr231 assay: Lysate was diluted 1:100 in assay buffer and Total Tau and pTau T231 was assessed by plate-based ELISA as per manufacturer instructions (MSD Cat #K15121D-1). Total fluorescence was measured using an Envison plate reader.
(§4) To test the potency and isoform selectivity of GSK3 small molecule inhibitors, HEK-huTau cells were transfected with plasmids containing either human GSK3α or GSK3β. Twenty-four hours after transfection, compounds were added at a 10-point dose response curve (at a range of 30 μM-3 nM) for a total of 2 hours, and cell lysates were probed for total tau and pThr231 using a plate-based assay.

human GSK3β = human GSK3β (Homo sapiens (Human), UniProt P49841); assay: pThr231 tau phosphorylation plate-based assay in HEK-huTau cells transfected with GSK3β; type: cell-based; settings: HEK-huTau cells transfected with human GSK3β; 10-point dose response, 2 hours; read-out: GSK3β IC50 (inhibition of pThr231)
Description: as §1, §2, §3, §4

[1] = Drug exposure in blood and brain, free drug concentration in the brain; type: in vivo, Sprague Dawley rats; settings: P10 rats
Description: Sprague Dawley rats were bred in-house and litters were injected with compound, I.P. at post-natal day 10. Rats were then euthanized at indicated times following drug administration. For tissue collection, animals were euthanized via decapitation, brains were quickly removed, and bisected sagitally. The right cortex, was isolated, placed into 2 mL microtubes along with a single 5 mm stainless steel bead and the left cortex were placed into 2 mL Lysing Matrix A tubes (MP Biomedicals, Santa Ana, CA), Both tubes were immediately snap frozen in liquid nitrogen.
Aqueous buffered homogenate was created from cortical tissue via bead beater, at a consistent homogenization factor, which was normalized by tissue weight. Total drug in brain was determined by measuring total exposure in brain in ng/ml (cortical tissue) via LC-MS/MS. This was then corrected to free concentration via an experimentally derived fu,br using rapid equilibrium dialysis with brain homogenate.
To determine drug exposure, blood and cortical tissue were analyzed at each time point following dosing.

human GSK3β, sequence (P49841 whole entry): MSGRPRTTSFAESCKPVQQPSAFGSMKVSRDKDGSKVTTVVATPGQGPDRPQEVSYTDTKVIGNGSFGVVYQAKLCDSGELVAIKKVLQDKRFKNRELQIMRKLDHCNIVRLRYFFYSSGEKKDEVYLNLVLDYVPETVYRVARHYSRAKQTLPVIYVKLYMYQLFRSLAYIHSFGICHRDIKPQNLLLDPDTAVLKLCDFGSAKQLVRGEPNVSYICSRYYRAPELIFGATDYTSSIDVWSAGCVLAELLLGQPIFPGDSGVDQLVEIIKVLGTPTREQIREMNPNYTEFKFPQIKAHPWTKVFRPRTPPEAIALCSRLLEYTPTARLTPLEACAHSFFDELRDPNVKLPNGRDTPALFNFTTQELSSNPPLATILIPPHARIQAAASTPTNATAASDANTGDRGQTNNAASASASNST
GSK3α, sequence (P49840 whole entry): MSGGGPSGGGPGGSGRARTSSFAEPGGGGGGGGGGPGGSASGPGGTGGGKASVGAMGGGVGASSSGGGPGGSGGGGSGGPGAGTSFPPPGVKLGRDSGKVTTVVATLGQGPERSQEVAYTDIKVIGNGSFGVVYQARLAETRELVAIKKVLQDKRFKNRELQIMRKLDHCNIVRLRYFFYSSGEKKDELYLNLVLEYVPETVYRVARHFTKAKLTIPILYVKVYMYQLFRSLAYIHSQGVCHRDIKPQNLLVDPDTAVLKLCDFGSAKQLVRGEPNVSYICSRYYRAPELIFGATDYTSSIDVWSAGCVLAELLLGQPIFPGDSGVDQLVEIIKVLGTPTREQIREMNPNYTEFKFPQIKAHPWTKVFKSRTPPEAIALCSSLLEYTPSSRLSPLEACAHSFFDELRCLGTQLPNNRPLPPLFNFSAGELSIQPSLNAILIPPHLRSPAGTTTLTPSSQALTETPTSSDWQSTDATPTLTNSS

CCC1(c2cccc(C(F)(F)F)c2)C2=C(Nc3n[nH]cc31)C(F)C(C)(C)CC2=O (single isomer, unassigned) [Compound 837646, 4-ethyl-8-fluoro-7,7-dimethyl-4-(3-(trifluoromethyl)phenyl)-2,4,6,7,8,9-hexahydro-5H-pyrazolo[3,4-b]quinolin-5-one]
IC50 (GSK3α): 150 nM | IC50 (human GSK3β): 1000 nM | steady Cmax extending post injection [1]: 6 h
